# Biological target: T1, SltB3 (Pseudomonas aeruginosa, UniProt Q9HX28)
# T1 sequence (Q9HX28 33-448): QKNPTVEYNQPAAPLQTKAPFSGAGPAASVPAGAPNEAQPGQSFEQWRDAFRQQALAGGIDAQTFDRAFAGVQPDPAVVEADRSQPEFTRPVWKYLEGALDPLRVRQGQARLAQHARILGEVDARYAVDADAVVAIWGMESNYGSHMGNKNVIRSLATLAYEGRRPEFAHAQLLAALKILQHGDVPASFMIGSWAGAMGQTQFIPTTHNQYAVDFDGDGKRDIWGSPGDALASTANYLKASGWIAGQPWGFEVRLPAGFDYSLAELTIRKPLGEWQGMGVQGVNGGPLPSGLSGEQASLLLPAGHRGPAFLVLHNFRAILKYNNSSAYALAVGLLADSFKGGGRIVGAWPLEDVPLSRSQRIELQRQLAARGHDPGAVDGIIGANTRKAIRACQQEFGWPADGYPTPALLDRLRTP
# Assay: LC/MS product quantification, nonlinear regression
# Format: biochemical
# Conditions: 20 mM HEPES, 0.1 M NaCl, 0.1% Triton X, pH 7.0, 25 °C; 8 nM enzyme
smiles,measurement,value
CO[C@@H]1O[C@H](CO)[C@@H](O[C@@H]2O[C@H](CO)[C@@H](O[C@@H]3O[C@H](CO)[C@@H](O[C@@H]4O[C@H](CO)[C@@H](O)[C@H](O)[C@H]4NC(C)=O)[C@H](O[C@H](C)C(=O)N[C@@H](C)C(=O)N[C@H](CCC(=O)N[C@@H](CCC[C@@H](N)C(=O)O)C(=O)N[C@H](C)C(=O)N[C@H](C)C(=O)O)C(=O)O)[C@H]3NC(C)=O)[C@H](O)[C@H]2NC(C)=O)[C@H](O[C@H](C)C(=O)N[C@@H](C)C(=O)N[C@H](CCC(=O)N[C@@H](CCC[C@@H](N)C(=O)O)C(=O)N[C@H](C)C(=O)N[C@H](C)C(=O)O)C(=O)O)[C@H]1NC(C)=O [compound 1],Km,200 ± 20 µM

# — article PMC5436585 (ACS chemical biology, 2016)
